From PubChem BioAssay (NCI)
Where “and” joins values, the source holds several entries; their conditions need not be identical. Equal values may be shown once.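 Here, GI50 denotes the concentration required for 50% inhibition of growth. At the TGI there is no net growth.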

Assays:
Assay in all cases: NCI anticancer screen, dose series, 384-well format
786-0 renal = system: 786-0 renal
A498 renal = system: A498 renal
A549 NSCLC = system: A549 NSCLC
ACHN renal = system: ACHN renal
BT-549 breast = system: BT-549 breast
CAKI-1 renal = system: CAKI-1 renal
COLO 205 colon = system: COLO 205 colon
DU-145 prostate = system: DU-145 prostate
EKVX NSCLC = system: EKVX NSCLC
HCC-2998 colon = system: HCC-2998 colon
HCT-116 colon = system: HCT-116 colon
HCT-15 colon = system: HCT-15 colon
HL-60(TB) leukemia = system: HL-60(TB) leukemia
HOP-62 NSCLC = system: HOP-62 NSCLC
HOP-92 NSCLC = system: HOP-92 NSCLC
HS 578T breast = system: HS 578T breast
HT29 colon = system: HT29 colon
IGROV1 ovarian = system: IGROV1 ovarian
K-562 leukemia = system: K-562 leukemia
KM12 colon = system: KM12 colon
LOX IMVI melanoma = system: LOX IMVI melanoma
M14 melanoma = system: M14 melanoma
MALME-3M melanoma = system: MALME-3M melanoma
MCF7 breast = system: MCF7 breast
MDA-MB-231 breast = system: MDA-MB-231 breast
MDA-MB-435 melanoma = system: MDA-MB-435 melanoma
MDA-MB-468 breast = system: MDA-MB-468 breast
MOLT-4 leukemia = system: MOLT-4 leukemia
NCI-H226 lung = system: NCI-H226 lung
NCI-H23 lung = system: NCI-H23 lung
NCI-H322M lung = system: NCI-H322M lung
NCI-H460 NSCLC = system: NCI-H460 NSCLC
NCI-H522 lung = system: NCI-H522 lung
NCI/ADR-RES ovarian = system: NCI/ADR-RES ovarian
OVCAR-3 ovarian = system: OVCAR-3 ovarian
OVCAR-4 ovarian = system: OVCAR-4 ovarian
OVCAR-5 ovarian = system: OVCAR-5 ovarian
OVCAR-8 ovarian = system: OVCAR-8 ovarian
PC-3 prostate = system: PC-3 prostate
RPMI-8226 leukemia = system: RPMI-8226 leukemia
RXF 393 renal = system: RXF 393 renal
SF-268 CNS = system: SF-268 CNS
SF-295 CNS = system: SF-295 CNS
SF-539 CNS = system: SF-539 CNS
SK-MEL-2 melanoma = system: SK-MEL-2 melanoma
SK-MEL-28 melanoma = system: SK-MEL-28 melanoma
SK-MEL-5 melanoma = system: SK-MEL-5 melanoma
SK-OV-3 ovarian = system: SK-OV-3 ovarian
SN12C renal = system: SN12C renal
SNB-19 CNS = system: SNB-19 CNS
SNB-75 CNS = system: SNB-75 CNS
SR leukemia = system: SR leukemia
SW-620 colon = system: SW-620 colon
T-47D breast = system: T-47D breast
TK-10 renal = system: TK-10 renal
U251 glioblastoma = system: U251 glioblastoma
UACC-257 melanoma = system: UACC-257 melanoma
UACC-62 melanoma = system: UACC-62 melanoma
UO-31 renal = system: UO-31 renal

SMILES: COCCNCCc1cccc(Nc2ncc3c(n2)-c2ccccc2C(c2ccccc2F)C3)c1 (stereo not drawn)
- GI50 ([…]-0 renal): 1.25 µM and 1.5 µM
- TGI (786-0 renal): 2.52 µM and 2.85 µM
- GI50 (A498 renal): 1.29 µM and 1.43 µM
- TGI (A498 renal): 2.57 µM and 2.76 µM
- GI50 (A549 NSCLC): 1.78 µM and 1.66 µM
- TGI (A549 NSCLC): 3.21 µM and 3.07 µM
- GI50 (ACHN renal): 1.54 µM and 1.3 µM
- TGI (ACHN renal): 2.89 µM and 2.6 µM
- GI50 (BT-549 breast): 1.34 µM and 1.69 µM
- TGI (BT-549 breast): 2.63 µM and 3.08 µM
- GI50 (CAKI-1 renal): 1.31 µM and 1 µM
- TGI (CAKI-1 renal): 2.61 µM and 2.35 µM
- GI50 (COLO 205 colon): 1.76 µM and 1.74 µM
- TGI (COLO 205 colon): 3.17 µM and 3.15 µM
- GI50 (DU-145 prostate): 1.68 µM and 1.76 µM
- TGI (DU-145 prostate): 3.07 µM and 3.17 µM
- GI50 (EKVX NSCLC): 1.55 µM
- TGI (EKVX NSCLC): 2.91 µM
- GI50 (HCC-2998 colon): 1.19 µM and 1.54 µM
- TGI (HCC-2998 colon): 2.44 µM and 2.9 µM
- GI50 (HCT-116 colon): 1.49 µM and 1.74 µM
- TGI (HCT-116 colon): 2.86 µM and 3.17 µM
- GI50 (HCT-15 colon): 1.2 µM and 1.3 µM
- TGI (HCT-15 colon): 2.48 µM and 2.62 µM
- GI50 (HL-60(TB) leukemia): 0.563 µM and 1.95 µM
- TGI (HL-60(TB) leukemia): 1.05 µM and 3.39 µM
- GI50 (HOP-62 NSCLC): 1.78 µM
- TGI (HOP-62 NSCLC): 3.18 µM and 3.19 µM
- GI50 (HOP-92 NSCLC): 1.55 µM and 1.61 µM
- TGI (HOP-92 NSCLC): 2.9 µM and 2.97 µM
- GI50 (HS 578T breast): 1.3 µM and 1.59 µM
- TGI (HS 578T breast): 2.57 µM and 2.94 µM
- GI50 (HT29 colon): 1.52 µM and 1.58 µM
- TGI (HT29 colon): 2.89 µM and 2.98 µM
- GI50 (IGROV1 ovarian): 1.16 µM and 1.19 µM
- TGI (IGROV1 ovarian): 2.39 µM and 2.43 µM
- GI50 (K-562 leukemia): 0.186 µM and 0.0758 µM
- TGI (K-562 leukemia): 0.402 µM and 0.214 µM
- GI50 (KM12 colon): 1.56 µM and 1.74 µM
- TGI (KM12 colon): 2.92 µM and 3.15 µM
- GI50 (LOX IMVI melanoma): 1.36 µM and 1.49 µM
- TGI (LOX IMVI melanoma): 2.65 µM and 2.83 µM
- GI50 (M14 melanoma): 1.85 µM and 2.14 µM
- TGI (M14 melanoma): 3.26 µM and 3.61 µM
- GI50 (MALME-3M melanoma): 1.9 µM and 2.03 µM
- TGI (MALME-3M melanoma): 3.31 µM and 3.47 µM
- GI50 (MCF7 breast): 1.28 µM and 1.45 µM
- TGI (MCF7 breast): 2.59 µM and 2.82 µM
- GI50 (MDA-MB-231 breast): 1.63 µM and 1.43 µM
- TGI (MDA-MB-231 breast): 3 µM and 2.75 µM
- GI50 (MDA-MB-435 melanoma): 1.88 µM and 1.91 µM
- TGI (MDA-MB-435 melanoma): 3.3 µM and 3.34 µM
- GI50 (MDA-MB-468 breast): 2.04 µM and 1.95 µM
- TGI (MDA-MB-468 breast): 3.47 µM and 3.37 µM
- GI50 (MOLT-4 leukemia): 0.67 µM and 0.543 µM
- TGI (MOLT-4 leukemia): 1.95 µM and 1.79 µM
- GI50 (NCI-H226 lung): 1.22 µM and 1.5 µM
- TGI (NCI-H226 lung): 2.47 µM and 2.84 µM
- GI50 (NCI-H23 lung): 1.64 µM and 1.74 µM
- TGI (NCI-H23 lung): 3.02 µM and 3.13 µM
- GI50 (NCI-H322M lung): 1.72 µM and 1.7 µM
- TGI (NCI-H322M lung): 3.11 µM and 3.09 µM
- GI50 (NCI-H460 NSCLC): 0.657 µM and 1.3 µM
- TGI (NCI-H460 NSCLC): 1.86 µM and 2.65 µM
- GI50 (NCI-H522 lung): 1.67 µM and 1.32 µM
- TGI (NCI-H522 lung): 3.05 µM and 2.61 µM
- GI50 (NCI/ADR-RES ovarian): 1.8 µM and 1.89 µM
- TGI (NCI/ADR-RES ovarian): 3.21 µM and 3.38 µM
- GI50 (OVCAR-3 ovarian): 1.33 µM and 1.37 µM
- TGI (OVCAR-3 ovarian): 2.63 µM and 2.68 µM
- GI50 (OVCAR-4 ovarian): 1.33 µM and 1.34 µM
- TGI (OVCAR-4 ovarian): 2.63 µM and 2.64 µM
- GI50 (OVCAR-5 ovarian): 1.79 µM and 1.8 µM
- TGI (OVCAR-5 ovarian): 3.2 µM and 3.23 µM
- GI50 (OVCAR-8 ovarian): 1.8 µM and 1.68 µM
- TGI (OVCAR-8 ovarian): 3.22 µM and 3.08 µM
- GI50 (PC-3 prostate): 1.59 µM and 1.4 µM
- TGI (PC-3 prostate): 2.96 µM and 2.72 µM
- GI50 (RPMI-8226 leukemia): 0.683 µM and 0.701 µM
- TGI (RPMI-8226 leukemia): 1.86 µM and 1.94 µM
- GI50 (RXF 393 renal): 0.612 µM and 1.26 µM
- TGI (RXF 393 renal): 1.84 µM and 2.52 µM
- GI50 (SF-268 CNS): 1.6 µM and 1.65 µM
- TGI (SF-268 CNS): 2.96 µM and 3.03 µM
- GI50 (SF-295 CNS): 1.74 µM and 1.82 µM
- TGI (SF-295 CNS): 3.14 µM and 3.23 µM
- GI50 (SF-539 CNS): 1.04 µM and 1.55 µM
- TGI (SF-539 CNS): 2.32 µM and 2.91 µM
- GI50 (SK-MEL-2 melanoma): 1.36 µM and 1.41 µM
- TGI (SK-MEL-2 melanoma): 2.65 µM and 2.73 µM
- GI50 (SK-MEL-28 melanoma): 1.76 µM and 1.83 µM
- TGI (SK-MEL-28 melanoma): 3.15 µM and 3.24 µM
- GI50 (SK-MEL-5 melanoma): 1.89 µM and 1.86 µM
- TGI (SK-MEL-5 melanoma): 3.31 µM and 3.28 µM
- GI50 (SK-OV-3 ovarian): 1.35 µM and 1.42 µM
- TGI (SK-OV-3 ovarian): 2.65 µM and 2.76 µM
- GI50 (SN12C renal): 1.31 µM and 0.906 µM
- TGI (SN12C renal): 2.6 µM and 2.34 µM
- GI50 (SNB-19 CNS): 1.92 µM and 1.93 µM
- TGI (SNB-19 CNS): 3.35 µM and 3.37 µM
- GI50 (SNB-75 CNS): 1.43 µM and 1.54 µM
- TGI (SNB-75 CNS): 2.75 µM and 2.88 µM
- GI50 (SR leukemia): 0.255 µM and 0.168 µM
- TGI (SR leukemia): 0.421 µM and 0.358 µM
- GI50 (SW-620 colon): 1.83 µM and 2.29 µM
- TGI (SW-620 colon): 3.24 µM and 3.77 µM
- GI50 (T-47D breast): 1.61 µM and 1.71 µM
- TGI (T-47D breast): 2.97 µM and 3.1 µM
- GI50 (TK-10 renal): 1.68 µM and 1.62 µM
- TGI (TK-10 renal): 3.06 µM and 2.99 µM
- GI50 (U251 glioblastoma): 1.67 µM and 1.98 µM
- TGI (U251 glioblastoma): 3.07 µM and 3.44 µM
- GI50 (UACC-257 melanoma): 1.54 µM and 1.67 µM
- TGI (UACC-257 melanoma): 2.9 µM and 3.06 µM
- GI50 (UACC-62 melanoma): 1.77 µM and 1.65 µM
- TGI (UACC-62 melanoma): 3.18 µM and 3.04 µM
- GI50 (UO-31 renal): 1.78 µM and 1.74 µM
- TGI (UO-31 renal): 3.18 µM and 3.14 µM
